The values that follow come from US12624023B2, “Sulfonylurea derivatives and uses thereof” (NodThera Limited, priority 2019, dated 2026).

Usually IC50 stands for the concentration at which inhibition is half-maximal.

Bounds are passed on as bounds.

Experiment [1] concerns IL-1β release upon NLRP3 activation in peripheral blood mononuclear cells (PBMC). The experiment is described as follows: PBMC IC50 determination assay (IL-1β release, LPS priming + ATP stimulation, HTRF). As to conditions: PBMC from buffy coats; LPS 1 μg/ml 3 h, compound 30 min, ATP 5 mM 1 h; IL-1β by HTRF. In kind it is cell-based. Here is the method:
The compounds of the present disclosure were tested for their inhibitory activity against IL-1β release upon NLRP3 activation in peripheral blood mononuclear cells (PBMC).
PBMC were isolated from buffy coats by density gradient centrifugation on Histopaque-1077 (Sigma, cat no. 10771). Isolated cells were seeded into the wells (280,000 cells/well) of a 96-well plate and incubated for 3 h with lipopolysaccharide (LPS, 1 μg/ml diluted 1000× from a 1 mg/ml stock solution). The compounds of the present disclosure were added (a single compound per well) and the cells were incubated for 30 min. Next, the cells were stimulated with ATP (5 mM final concentration diluted 20× from a 100 mM stock solution) for 1 h and the cell culture media from the wells were collected for further analysis.
The release of IL-1β into the media was determined by quantitative detection of IL-1β in the media using HTRF®, CisBio cat. No. 62HIL1BPEH. Briefly, cell culture supernatant were dispensed directly into the assay plate containing antibodies labelled with the HTRF® donor and acceptor. A microplate spectrophotometer (BMG) was used to detect signals at 655 nm and 620 nm. The detection range of IL-1β HTRF® was […].
(In general: TR-FRET usually uses a lanthanide donor and a delayed reading to cut background.)

The subject of experiment [2] is IL-1β release upon NLRP3 activation in human whole blood. The experiment is described as follows: Whole blood (WB) assay (IL-1β release, LPS priming + ATP stimulation, HTRF). In kind it is cell-based. As to conditions: heparin, diluted 9:5 with media, LPS 1 μg/ml 3 h, compound 30 min, ATP 5 mM 1 h, IL-1β by HTRF. As to the method: The compounds of the present disclosure were tested for their inhibitory activity against IL-1β release upon NLRP3 activation in human whole blood.
Whole blood was drawn from single healthy donors and treated with sodium heparin anticoagulant. Blood was diluted with cell culture media at a 9:5 ratio, seeded in a 96-well plate and incubated for 3 h with lipopolysaccharide (LPS, 1 μg/ml final concentration diluted 1000× from a 1 mg/ml stock solution). The compounds of the present disclosure were added (a single compound concentration per well) and the blood was incubated for 30 min. Next, the blood was stimulated with ATP (5 mM final concentration diluted 20× from a 100 mM stock solution) for 1 h and the cell culture media from the wells were collected for further analysis.
The release of IL-1β into the media was determined by quantitative detection of IL-1β in the media using HTRF®, CisBio cat. No. 62HIL1BPEH. Briefly, cell culture supernatant were diluted as appropriate to bring IL-1β levels within the HTRF® detection range ([…]) and subsequently dispensed into the assay plate containing antibodies labelled with the HTRF® donor and acceptor. A microplate spectrophotometer (BMG) was used to detect signals at 655 nm and 620 nm.

Turning to `CC(C)c1cc(NC(=O)NS(=O)(=O)N(c2cnn(C)c2)C2CCCN(C)C2)c(C(C)C)o1` (centres unmarked) [Compound 73, 3-[2,5-Bis(propan-2-yl)furan-3-yl]-1-[(1-methyl-1H-pyrazol-4-yl)(1-methylpiperidin-3-yl)sulfamoyl]urea], the IC50 in experiment [1] is under 0.1 µM; in experiment [2], under 1 µM.

Turning to `CC(C)c1cc(NC(=O)NS(=O)(=O)N(CCN(C)C)c2cnn(C)c2)c(C(C)C)o1` [Compound 75, 3-[2,5-Bis(propan-2-yl)furan-3-yl]-1-{[2-(dimethylamino)ethyl](1-methyl-1H-pyrazol-4-yl)sulfamoyl}urea], the figures for the IC50 in experiment [1] and in experiment [2] were 0.1 to 0.5 µM and 3 to 10 µM, respectively.

With `CC(C)c1cc(NC(=O)NS(=O)(=O)N(c2cnn(C)c2)[C@@H]2C[C@H](F)CN(C)C2)c(C(C)C)s1` [Compound 76, 3-[2,5-Bis(propan-2-yl)thiophen-3-yl]-1-{[(3R,5S)-5-fluoro-1-methylpiperidin-3-yl](1-methyl-1H-pyrazol-4-yl)sulfamoyl}urea], the figures for the IC50 in experiment [1] and in experiment [2] were 0.1 to 0.5 µM and 3 to 10 µM, respectively.

For the compound `CCc1sc2c(c1NC(=O)NS(=O)(=O)N(c1cnn(C)c1)C1CCCN(C)C1)CCC2` (centres unmarked) [Compound 77, 3-{2-Ethyl-4H,5H,6H-cyclopenta[b]thiophen-3-yl}-1-[(1-methyl-1H-pyrazol-4-yl)(1-methylpiperidin-3-yl)sulfamoyl]urea], the IC50 in experiment [1] is under 0.1 µM; in experiment [2] it was under 1 µM.

Turning to `CCc1oc(C(C)C)cc1NC(=O)NS(=O)(=O)N(c1cnn(C)c1)C1CCCN(C)C1` (centres unmarked) [Compound 78, 3-[2-Ethyl-5-(propan-2-yl)furan-3-yl]-1-[(1-methyl-1H-pyrazol-4-yl)(1-methyl-piperidin-3-yl)sulfamoyl]urea], the IC50 fell in the range of 0.5 to 1 µM in experiment [1] and 1 to 3 µM in experiment [2].

Consider `CCc1cc(NC(=O)NS(=O)(=O)N(c2cnn(C)c2)C2CCCN(C)C2)c(C(C)C)o1` (centres unmarked) [Compound 79, 3-[5-Ethyl-2-(propan-2-yl)furan-3-yl]-1-[(1-methyl-1H-pyrazol-4-yl)(1-methyl-piperidin-3-yl)sulfamoyl]urea], for which the IC50 in experiment [1] was under 0.1 µM; in experiment [2], under 1 µM.

`CC(C)c1sc(Cl)cc1NC(=O)NS(=O)(=O)N(c1cnn(C)c1)[C@H]1CCCN(C)C1` [Compound 80, 3-[5-Chloro-2-(propan-2-yl)thiophen-3-yl]-1-[(1-methyl-1H-pyrazol-4-yl)[(3S)-1-methylpiperidin-3-yl]sulfamoyl]urea]: the IC50 in experiment [1] was under 0.1 µM; in experiment [2] it was under 1 µM.

On to `Cc1cc(NC(=O)NS(=O)(=O)N(c2cnn(C)c2)[C@H]2CCCN(C)C2)c(C(C)C)s1` [Compound 81, 1-[(1-Methyl-1H-pyrazol-4-yl)[(3S)-1-methylpiperidin-3-yl]sulfamoyl]-3-[5-methyl-2-(propan-2-yl)thiophen-3-yl]urea], for which the figures for the IC50 in experiment [1] and in experiment [2] were under 0.1 µM and under 1 µM, respectively.

`CC(C)c1cc(NC(=O)NS(=O)(=O)N(c2cnn(C)c2)[C@@H]2C[C@@H](F)CN(C)C2)c(C(C)C)s1` [Compound 82, 3-[2,5-Bis(propan-2-yl)thiophen-3-yl]-1-{[(3R,5R)-5-fluoro-1-methylpiperidin-3-yl](1-methyl-1H-pyrazol-4-yl)sulfamoyl}urea]: the results for the IC50 in experiment [1] and in experiment [2] were under 0.1 µM and 1 to 3 µM, respectively.

For `CC(C)c1cc(NC(=O)NS(=O)(=O)N(CCN(C)C)c2cnn(C(C)C)c2)c(C(C)C)o1` [Compound 83, 1-[2,5-Bis(propan-2-yl)furan-3-yl]-3-{[2-(dimethylamino)ethyl][1-(propan-2-yl)-1H-pyrazol-4-yl]sulfamoyl}urea], the IC50 in experiment [1] lay within 0.1 to 0.5 µM; in experiment [2] it was 1 to 3 µM.

`CC(C)c1cc(NC(=O)NS(=O)(=O)N(c2cnn(C(C)C)c2)[C@H]2CCCN(C)C2)c(C(C)C)s1` [Compound 84, 3-[2,5-Bis(propan-2-yl)thiophen-3-yl]-1-{[(3S)-1-methylpiperidin-3-yl][1-(propan-2-yl)-1H-pyrazol-4-yl]sulfamoyl}urea]: the IC50 in experiment [1] is under 0.1 µM; in experiment [2] it was under 1 µM.

For the compound `CC(C)c1sc2c(c1NC(=O)NS(=O)(=O)N(c1cnn(C)c1)[C@H]1CCCN(C)C1)CCC2` [Compound 85, 1-[(1-Methyl-1H-pyrazol-4-yl)[(3S)-1-methylpiperidin-3-yl]sulfamoyl]-3-[2-(propan-2-yl)-4H,5H,6H-cyclopenta[b]thiophen-3-yl]urea], the IC50 is under 0.1 µM in experiment [1] and under 1 µM in experiment [2].

On to `CCc1sc2c(c1NC(=O)NS(=O)(=O)N(c1cnn(C)c1)C1CCCN(C)C1)CCCC2` (centres unmarked) [Compound 86, 3-(2-Ethyl-4,5,6,7-tetrahydro-1-benzothiophen-3-yl)-1-[(1-methyl-1H-pyrazol-4-yl)(1-methylpiperidin-3-yl)sulfamoyl]urea], for which the values for the half-maximal inhibitory concentration (IC50) in experiment [1] and in experiment [2] were 0.1 to 0.5 µM and 1 to 3 µM, respectively.

On to `CCc1cc(NC(=O)NS(=O)(=O)N(c2cnn(C(C)C)c2)[C@H]2CCCN(C)C2)c(CC)o1` [Compound 87, 3-(2,5-Diethylfuran-3-yl)-1-{[(3S)-1-methylpiperidin-3-yl][1-(propan-2-yl)-1H-pyrazol-4-yl]sulfamoyl}urea], for which the IC50 fell in the range of 0.1 to 0.5 µM in experiment [1] and 1 to 3 µM in experiment [2].

As to `CCc1cc(NC(=O)NS(=O)(=O)N(c2cnn(C)c2)[C@H]2CCCN(C)C2)c(C(C)C)s1` [Compound 88, 3-[5-Ethyl-2-(propan-2-yl)thiophen-3-yl]-1-[(1-methyl-1H-pyrazol-4-yl)[(3S)-1-methylpiperidin-3-yl]sulfamoyl]urea], the IC50 in experiment [1] was under 0.1 µM; in experiment [2] it was under 1 µM.

Consider `CCc1sc(C(C)C)cc1NC(=O)NS(=O)(=O)N(c1cnn(C)c1)[C@H]1CCCN(C)C1` [Compound 89, 3-[2-Ethyl-5-(propan-2-yl)thiophen-3-yl]-1-[(1-methyl-1H-pyrazol-4-yl)[(3S)-1-methylpiperidin-3-yl]sulfamoyl]urea], for which the IC50 was under 0.1 µM in experiment [1] and 1 to 3 µM in experiment [2].

On to `Cc1sc(C(C)C)cc1NC(=O)NS(=O)(=O)N(c1cnn(C)c1)[C@H]1CCCN(C)C1` [Compound 90, 1-[(1-Methyl-1H-pyrazol-4-yl)[(3S)-1-methylpiperidin-3-yl]sulfamoyl]-3-[2-methyl-5-(propan-2-yl)thiophen-3-yl]urea], for which the IC50 is 0.1 to 0.5 µM in experiment [1] and 1 to 3 µM in experiment [2].

`CC(C)c1cc(NC(=O)NS(=O)(=O)N(c2cnn(C3CC3)c2)[C@H]2CCCN(C)C2)c(C(C)C)s1` [Compound 91, 3-[2,5-Bis(propan-2-yl)thiophen-3-yl]-1-[(1-cyclopropyl-1H-pyrazol-4-yl)[(3S)-1-methylpiperidin-3-yl]sulfamoyl]urea]: the IC50 in experiment [1] was under 0.1 µM; in experiment [2], under 1 µM.

Consider `CC(C)c1cc(NC(=O)NS(=O)(=O)N(c2cnn(C)c2)[C@H]2C[C@H](F)CN(C)C2)c(C(C)C)s1` [Compound 92, 3-[2,5-Bis(propan-2-yl)thiophen-3-yl]-1-{[(3S,5S)-5-fluoro-1-methylpiperidin-3-yl](1-methyl-1H-pyrazol-4-yl)sulfamoyl}urea], for which the values for the IC50 in experiment [1] and in experiment [2] were under 0.1 µM and under 1 µM, respectively.

Regarding `CC(C)c1cc(NC(=O)NS(=O)(=O)N(c2cnn(C)c2)C2CN(C)CC(F)(F)C2)c(C(C)C)s1` (centres unmarked) [Compound 93, 3-[2,5-Bis(propan-2-yl)thiophen-3-yl]-1-[(5,5-difluoro-1-methylpiperidin-3-yl)(1-methyl-1H-pyrazol-4-yl)sulfamoyl]urea], the values for the IC50 in experiment [1] and in experiment [2] were 0.1 to 0.5 µM and 3 to 10 µM, respectively.

On to `CCc1oc2c(c1NC(=O)NS(=O)(=O)N(c1cnn(C)c1)C1CCCN(C)C1)CCCC2` (centres unmarked) [Compound 94, 3-(2-Ethyl-4,5,6,7-tetrahydro-1-benzofuran-3-yl)-1-[(1-methyl-1H-pyrazol-4-yl)(1-methylpiperidin-3-yl)sulfamoyl]urea], for which the results for the IC50 in experiment [1] and in experiment [2] were 0.1 to 0.5 µM and under 1 µM, respectively.

In the case of `Cc1sc2c(c1NC(=O)NS(=O)(=O)N(c1cnn(C)c1)[C@@H]1CCCN(C)C1)CCC2` [Compound 95, 1-[(1-Methyl-1H-pyrazol-4-yl)[(3R)-1-methylpiperidin-3-yl]sulfamoyl]-3-{2-methyl-4H,5H,6H-cyclopenta[b]thiophen-3-yl}urea], the figures for the IC50 in experiment [1] and in experiment [2] were 0.1 to 0.5 µM and under 1 µM, respectively.
